Assay results as given in ChEMBL document CHEMBL1667790, “Synthesis and antioxidant activity of long chain alkyl hydroxycinnamates” (Eur J Med Chem, 2011).

How the values were obtained:
[1] = system: Radical scavenging activity; test: Antioxidant activity assessed as residual DPPH radical scavenging activity after 45 mins by spectrophotometrically; assay type: functional
[2] = Antioxidant activity assessed as trolox equivalents of ABTS radical scavenging activity by TEAC assay; assay type: functional

| IC50 [1] | Structure (SMILES) | Activity [2] |
| --- | --- | --- |
| 77.1 µM | CCCCCCCCCCCCCCCCCCOC(=O)/C=C/c1cc(OC)c(O)c(OC)c1 | 1.16 mmol |
| 31.9 µM | CCCCCCCCCCCCCCOC(=O)/C=C/c1ccc(O)c(O)c1 | 0.98 mmol |
| 110 µM | CCCCCCCCCCCCCCOC(=O)/C=C/c1ccc(O)c(OC)c1 | 1.66 mmol |
| > 100 µM | CCCCCCCCCCCCCCOC(=O)/C=C/c1ccc(O)cc1 | – |
| 112 µM | COc1cc(/C=C/C(=O)O)ccc1O [FERULATE] | 1.76 mmol |
| 77.2 µM | CCCCCCCCCCCCCCOC(=O)/C=C/c1cc(OC)c(O)c(OC)c1 | 1.18 mmol |
| 33 µM | CCCCCCCCCCCCCCCCOC(=O)/C=C/c1ccc(O)c(O)c1 | 0.96 mmol |
| 66 µM | COc1cc(/C=C/C(=O)O)cc(OC)c1O [SINAPINATE] | 1.14 mmol |
| 38 µM | CCCCCCCCCCCCCCCCCCOC(=O)/C=C/c1ccc(O)c(O)c1 | 1.02 mmol |
| 34.1 µM | O=C(O)/C=C/c1ccc(O)c(O)c1 [CAFFEIC ACID] | 0.95 mmol |
| > 100 µM | O=C(O)/C=C/c1ccc(O)cc1 [COUMARIC ACID] | – |
| 117 µM | CCCCCCCCCCCCCCCCCCOC(=O)/C=C/c1ccc(O)c(OC)c1 | 1.8 mmol |
